Measurements from patent US12630529B2, “GCN2 modulator compounds” (ALESTA THERAPEUTICS BV, priority 2020, dated 2026).

Legend:
[1] = biological target: T1, GCN2 (Mus musculus, UniProt Q9QZ05); test: GCN2 inhibition cell-based assay (P-GCN2 Western blot in Neuro 2a cells); conditions: amino acid deprived media (DMEM lacking L-cysteine and methionine), 3 hours
T1 construct: endogenous in cells; host or cells: Neuro 2a (N2a)
Protocol: Neuro 2a cells (N2a) were maintained at 37° C. and 5% CO2 in DMEM/F12 medium (Fisher Scientific) supplemented with 10% fetal bovine serum and 1% penicillin-streptomycin (complete medium). 300,000 cells/well were seeded in flat bottom 6 well plates 48 hours before treatment with the compounds.
Testing compounds were prepared at different concentrations ranging from 10 μM to 0.1 nM on DMEM medium lacking L-cysteine and methionine (DMEM-CM) (Gibco) and supplemented with 1% penicillin-streptomycin. Complete medium was used as control of non-stressed condition. After 48 hours, the medium was removed from each well and 2 mL per well of each treatment was added. Cells were treated for 3 hours at 37° C. and 5% CO2.
After the incubation time, each well was washed with sterile 1×PBS and then 100 μL of ice-cold lysis buffer supplemented with phosphatase and protease inhibitors was added. Lysates were transferred to 1.5 mL tubes and sonicated for 3 min, and total protein amounts were quantified using BCA assay (e.g., BCA Protein Assay Kit; Pierce) according to manufacturer instructions. Equal amount of proteins was loaded on SDS-PAGE gels for electrophoresis and then transferred onto 0.2 µm filter pore PVDF membranes.
Membranes were then blocked in blocking buffer containing 3% BSA/0.1% Tween/1×Tris-buffered saline (TBS) for 1 hour and then incubated overnight at 4° C. with agitation with anti-pGCN2 primary antibody (Abcam ab-75836), diluted 1:1,000 in blocking buffer. […] (Sigma Aldrich) was used as a loading control.
Membranes were then incubated with the corresponding secondary antibody to detect immune-reactive bands using enhanced chemiluminescence (e.g., ECL Western Blotting Substrate Pierce).
Images were acquired (e.g., using Chemidoc™ equipment) and quantitated by densitometry using ImageJ software. IC50 values were determined from a concentration-response curve using GraphPad prism software.
IC50 values from P-GCN2 inhibition assay after induction with amino acid deprived media in the presence of different concentrations of test compounds are shown in Table 2. For IC50 values: +++ refers to <10 nM of test compound; ++ refers to 10 nM to 100 nM of test compound; + refers to 100 nM to 1,000 nM of test compound and − refers to >1,000 nM of test compound.
Under GCN2-mediated stress conditions, resulting from an amino acid deprived medium, GCN2 is generally phosphorylated. Accordingly, inhibition of GCN2 phosphorylation as a result of the test compound indicates inhibition of the GCN2 pathway.

[2] = system: CHOP (DDIT3) reporter; test: GCN2-induction of CHOP and apoptosis in 3T3 fibroblasts with CHOP (DDIT3) reporter construct; assay type: cell-based, murine
Protocol: The CHOP construct comprised the […] (UTR) of mouse DDIT3 mRNA fused to a sequence encoding the fluorescent protein mCherry.
Cells were seeded at 5,000 cells per well in flat bottom 96-well plates in 100 μL DMEM low glucose media without phenol red, and supplemented with 10% FBS and 2 mM glutamine. After 24 hours, the exemplary compounds, and either tunicamycin, halofuginone, or histidinol, were added together with 100 nM of fluorescent apoptosis stain (YO-PRO™-1 Iodide; Thermo Fisher) to detect apoptotic cells. Cells were placed in a live-cell imaging and analysis platform (IncuCyte ZOOM®; Essenbio) set up in a humidified incubator at 37° C. and the plates were scanned every 4 hours for up 120 hours, at 10× magnification, to determine cell confluence and cell death. Experiments were performed in duplicate with 3 images collected per well, and analyzed using live-cell imaging and analysis software (IncuCyte ZOOM® 2018A software; Essenbio).

[3] = system: HT29 cells; test: Growth of tumor spheroids; assay type: cell-based; conditions: 64 μM arginine, up to 120 hours, vs untreated spheroids
Protocol: The growth of tumor spheroids was evaluated following treatment of cells with Compound 1, Compound 2 and Compound 108. Briefly, HT29 cells were seeded at 5,000 cells/well in ultra-low attachment round bottom 96-well plates, in 100 μL SILAC DMEM Flex media without phenol red, supplemented with 10% fetal bovine serum (FBS), 1 g/L glucose, 2 mM glutamine, 220 μM lysine, and 64 μM arginine. The plates were centrifuged for 10 minutes at 125×g and put in a humidified incubator at 37° C. for 3 days before the onset of the experiment to allow spheroids to form.
Three days after seeding, 10 μM Compound 1, 10 μM Compound 2, 10 μM Compound 108 or 10 μM vehicle control (0.1% DMSO), were added together with 100 nM fluorescent apoptosis stain (e.g., YO-PRO™-1 Iodide; Thermo Fisher) to detect apoptotic cells and Nuclear-ID Red DNA Stain (1:100,000; ENZO Life Sciences) to detect live cells. Plates were placed in a live-cell imaging and analysis platform (e.g., IncuCyte ZOOM®; Essenbio) set up in a humidified incubator at 37° C. and scanned every 4 hours for up 120 hours, at 10× magnification, to determine relative spheroid size and cell death. Experiments were performed in quadruplicate and analyzed using live-cell imaging and analysis software (e.g., IncuCyte ZOOM® 2018A software; Essenbio).

T1 sequence (Q9QZ05 whole entry): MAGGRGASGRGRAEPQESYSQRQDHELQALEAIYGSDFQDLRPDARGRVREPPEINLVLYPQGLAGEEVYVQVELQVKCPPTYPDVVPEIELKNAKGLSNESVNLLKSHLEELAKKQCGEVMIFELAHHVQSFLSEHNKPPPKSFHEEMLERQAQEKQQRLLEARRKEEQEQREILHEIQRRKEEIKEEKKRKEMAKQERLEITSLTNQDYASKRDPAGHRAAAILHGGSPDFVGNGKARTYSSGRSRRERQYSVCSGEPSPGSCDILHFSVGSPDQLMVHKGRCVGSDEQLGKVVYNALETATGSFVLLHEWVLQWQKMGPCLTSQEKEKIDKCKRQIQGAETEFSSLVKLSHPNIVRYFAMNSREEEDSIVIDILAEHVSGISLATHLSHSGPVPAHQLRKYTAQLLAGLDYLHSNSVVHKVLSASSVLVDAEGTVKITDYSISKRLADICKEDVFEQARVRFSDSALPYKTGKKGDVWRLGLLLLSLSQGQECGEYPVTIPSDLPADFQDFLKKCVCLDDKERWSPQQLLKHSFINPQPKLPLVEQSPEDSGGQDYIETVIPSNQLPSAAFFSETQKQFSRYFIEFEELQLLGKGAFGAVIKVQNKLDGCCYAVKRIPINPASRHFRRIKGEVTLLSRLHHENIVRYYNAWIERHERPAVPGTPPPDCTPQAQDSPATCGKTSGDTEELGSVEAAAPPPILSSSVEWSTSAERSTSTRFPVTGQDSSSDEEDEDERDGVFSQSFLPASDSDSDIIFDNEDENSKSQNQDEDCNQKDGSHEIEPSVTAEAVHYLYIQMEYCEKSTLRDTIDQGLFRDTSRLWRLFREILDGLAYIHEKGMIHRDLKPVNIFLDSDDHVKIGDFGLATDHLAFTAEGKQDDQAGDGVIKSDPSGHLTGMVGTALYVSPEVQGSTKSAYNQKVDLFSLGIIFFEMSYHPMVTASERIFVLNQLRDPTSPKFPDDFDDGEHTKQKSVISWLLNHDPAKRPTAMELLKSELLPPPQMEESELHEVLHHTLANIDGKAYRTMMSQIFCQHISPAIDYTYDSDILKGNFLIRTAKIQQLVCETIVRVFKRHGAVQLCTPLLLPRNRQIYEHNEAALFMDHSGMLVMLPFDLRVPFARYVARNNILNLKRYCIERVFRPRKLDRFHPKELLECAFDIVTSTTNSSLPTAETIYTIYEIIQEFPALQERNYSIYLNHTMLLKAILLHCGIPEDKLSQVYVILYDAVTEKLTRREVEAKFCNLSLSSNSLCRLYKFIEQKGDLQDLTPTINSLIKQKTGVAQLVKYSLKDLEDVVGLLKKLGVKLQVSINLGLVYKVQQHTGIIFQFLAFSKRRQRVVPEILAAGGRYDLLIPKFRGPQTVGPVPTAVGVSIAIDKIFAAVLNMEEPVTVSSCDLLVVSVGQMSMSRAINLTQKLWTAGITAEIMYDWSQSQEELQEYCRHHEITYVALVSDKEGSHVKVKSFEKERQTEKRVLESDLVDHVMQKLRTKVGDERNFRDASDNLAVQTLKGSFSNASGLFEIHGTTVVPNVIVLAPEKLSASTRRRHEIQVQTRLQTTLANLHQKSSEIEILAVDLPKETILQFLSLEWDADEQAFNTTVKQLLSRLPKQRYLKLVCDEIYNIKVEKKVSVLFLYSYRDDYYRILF

Nc1ncc2cc(-c3c(F)ccc(NS(=O)(=O)c4cc(Cl)cc(CO)c4Cl)c3F)ccc2n1 [Compound 108]
IC50 [1]: < 10 nM
GCN2 activation / GCN2-induced CHOP activation ([2]; murine 3T3 CHOP (mCherry) reporter fibroblasts, increasing concentrations, in the presence of halofuginone or histidinol): reduced GCN2 activation
apoptosis induced by halofuginone ([2]; murine 3T3 WT cells, co-treatment with halofuginone): effectively inhibited apoptosis
late-stage apoptosis induced by histidinol ([2]; murine 3T3 WT cells, co-treatment with histidinol): increased late-stage apoptosis
spheroid size and viability [3]: relative reduction in spheroid size and viability in a dose-dependent manner
